How the values were obtained:
human BACE1 = human BACE1 (Homo sapiens, UniProt P56817); assay: BACE-1 fluorescent kinetic assay (cleavage of peptide substrate WABC-6); format: biochemical; conditions: 10 nM enzyme, 25 μM substrate WABC-6, Na-Acetate pH 4.5, room temperature
Method: Evaluation of BACE-1 Binding Affinity of Test Compounds
Fluorescent Kinetic Assay
Dilution and mixing steps: total reaction volume: 100 μL
100 μM substrate dilution in 1×PBS was prepared, and
Fluorescence Readings: Readings at λex 320 nm and λem 420 nm are taken every 40 sec for 30 min at room temperature and the linear slope for substrate cleavage rate (vi) determined.

Chain of human BACE1 (P56817 46-501): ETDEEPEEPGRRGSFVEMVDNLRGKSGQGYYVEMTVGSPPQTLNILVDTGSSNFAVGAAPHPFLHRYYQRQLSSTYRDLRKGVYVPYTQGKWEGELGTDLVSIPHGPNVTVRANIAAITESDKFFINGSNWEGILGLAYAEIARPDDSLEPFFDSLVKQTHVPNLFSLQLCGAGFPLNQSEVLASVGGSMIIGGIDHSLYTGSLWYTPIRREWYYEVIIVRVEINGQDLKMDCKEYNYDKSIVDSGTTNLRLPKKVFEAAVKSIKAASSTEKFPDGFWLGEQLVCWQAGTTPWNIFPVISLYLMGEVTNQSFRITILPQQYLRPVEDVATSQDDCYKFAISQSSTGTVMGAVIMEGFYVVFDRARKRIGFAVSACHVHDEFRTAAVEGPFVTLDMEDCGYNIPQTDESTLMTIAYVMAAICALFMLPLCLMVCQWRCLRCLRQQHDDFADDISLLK

For `Nc1cccc(Cn2c(-c3ccc(NC(=O)c4cccc(Br)c4)cc3)ccc2-c2ccccc2Cl)n1` [Example 2, N-{4-[1-(6-Amino-pyridin-2-ylmethyl)-5-(2-chloro-phenyl)-1H-pyrrol-2-yl]-phenyl}-3-bromo-benzamide], the “BACE 1 IC50 μM” value (human BACE1) was “D (D = >5.0 μM-0.10 = μM)” and the melting point was 116 to 122 °C.

For `Nc1cccc(Cn2c(-c3ccccc3)ccc2-c2ccc(C(=O)NCC3CCCO3)cc2)n1` (stereo not shown) [Example 66, 4-{1-[(6-aminopyridin-2-yl)methyl]-5-phenyl-1H-pyrrol-2-yl}-N-(tetrahydrofuran-2-ylmethyl)benzamide], the “BACE 1 IC50 μM” value (human BACE1) was “D (D = >5.0 μM-0.10 = μM)” and the melting point was 98 to 99 °C.

`Cl.N#CCCCCOc1ccc(-c2ccc(-c3ccccc3Cl)n2Cc2cccc(N)n2)cc1` [Example 19, 5-{4-[1-(6-Amino-pyridin-2-ylmethyl)-5-(2-chloro-phenyl)-1H-pyrrol-2-yl]-phenoxy}-pentanenitrile hydrochloride] showed an IC50 (human BACE1) of 110 to 1000 nM and a melting point of 126 to 130 °C.

For `Nc1nc(Cn2c(-c3ccc(Br)cc3)ccc2-c2ccccc2Cl)ccc1OCCO` [Example 47, 2-{2-Amino-6-[2-(4-bromo-phenyl)-5-(2-chloro-phenyl)-pyrrol-1-ylmethyl]-pyridin-3-yloxy}-ethanol], the IC50 (human BACE1) was 110 to 1000 nM and the melting point was 80 to 82 °C.

In the case of `CCCCC(=O)Nc1ccc(-c2ccc(-c3ccccc3Cl)n2Cc2cccc(N)n2)cc1` [Example 52, Pentanoic acid {4-[1-(6-amino-pyridin-2-ylmethyl)-5-(2-chlorophenyl)-1H-pyrrol-2-yl]-phenyl}-amide], the IC50 (human BACE1) is reported as 1100 to 5000 nM and the melting point is reported as 145 to 150 °C.

In the case of `Cl.N#CCCCCCOc1ccc(-c2ccc(-c3ccccc3Cl)n2Cc2cccc(N)n2)cc1` [Example 20, 6-{4-[1-(6-Amino-pyridin-2-ylmethyl)-5-(2-chloro-phenyl)-1H-pyrrol-2-yl]-phenoxy}-hexanenitrile hydrochloride], the IC50 (human BACE1) is reported as 1100 to 5000 nM and the melting point is reported as 98 to 106 °C.

`Nc1cccc(Cn2c(-c3ccc(Br)cc3)ccc2-c2ccccc2Cl)n1` [Example 4, 6-[2-(4-bromo-phenyl)-5-(2-chloro-phenyl)-pyrrol-1-ylmethyl]-pyridin-2-ylamine] showed an IC50 (human BACE1) of 1100 to 5000 nM and a melting point of 154 to 158 °C.

In the case of `Nc1cccc(Cn2c(-c3ccc(O)cc3)ccc2-c2ccccc2Cl)n1` [Example 6, 4-[1-(6-Amino-pyridin-2-ylmethyl)-5-(2-chloro-phenyl)-1H-pyrrol-2-yl]-phenol], the “BACE 1 IC50 μM” value (human BACE1) is reported as “D (D = >5.0 μM-0.10 = μM)” and the melting point is reported as 170 to 172 °C.

With `CCOC(=O)c1ccc(-c2ccc(-c3ccccc3)n2Cc2cccc(N)n2)cc1` [Example 58, Ethyl 4-{1-[(6-aminopyridin-2-yl)methyl]-5-phenyl-1H-pyrrol-2-yl}benzoate] the “BACE 1 IC50 μM” value (human BACE1) was “D (D = >5.0 μM-0.10 = μM)” and the melting point was 161 to 162 °C.

In the case of `Cc1cccc(C(=O)Nc2ccc(-c3ccc(-c4ccccc4Cl)n3Cc3cccc(N)n3)cc2)c1` [Example 1, N-{4-[1-(6-Amino-pyridin-2-ylmethyl)-5-(2-chloro-phenyl)-1H-pyrrol-2-yl]-phenyl}-3-methyl-benzamide], the “BACE 1 IC50 μM” value (human BACE1) is reported as “D (D = >5.0 μM-0.10 = μM)” and the melting point is reported as 108 to 118 °C.

For `CCCOc1ccc(-c2ccc(-c3ccccc3)n2Cc2cccc(N)n2)cc1` [Example 56, 6-{[2-phenyl-5-(4-propoxyphenyl)-1H-pyrrol-1-yl]methyl}pyridin-2-amine], the IC50 (human BACE1) was 1100 to 5000 nM and the melting point was 106 to 107 °C.

From patent US7732457B2, “Amino-pyridines as inhibitors of β-secretase” (Wyeth LLC, priority 2005, dated 2010)
